Target: T1, FGFR2 (Homo sapiens, UniProt P21802)
Assay: FGFR2 Kinase Protocol - Condition 1 (Reaction Biology HotSpot radiometric kinase assay)
Type: biochemical
Settings: 20-min incubation of compound with kinase before ATP; poly[Glu:Tyr] (4:1) 0.2 mg/ml; ATP 100 micromolar; 2 hr room temperature
Description: Example 1: FGFR2 Kinase Protocol—Condition 1
The Reaction Biology HotSpot assay platform (http://www.reactionbiology.com) was used to measure kinase/inhibitor interactions as described previously (Anastassiadis et al., 2011). In brief, for each reaction, kinase and substrate were mixed in a buffer containing 20 mM HEPES (pH 7.5), 10 mM MgCl2, 1 mM EGTA, 0.02% Brij35, 0.02 mg/mL BSA, 0.1 mM Na3VO4, 2 mM DTT, and 1% DMSO. All compounds were in powder form and freshly solubilized in DMSO for assays. Compounds were then added to each reaction mixture via acoustic dispense using an ECHO 550 nanoliter dispenser. For Human FGFR2 wildtype testing, a peptide substrate, poly[Glu:Tyr] (4:1) was used to promote the reaction at a concentration of 0.2 mg/ml. For Human FGFR2 (V564F) testing, a peptide substrate, poly[Glu:Tyr] (4:1) was used to promote the reaction at a concentration of 0.2 mg/ml. ATP concentration for all assays was maintained at 100 micromolar. Compounds were tested in 10-dose IC50 mode with a 3-fold serial dilution. After a 20-min incubation, ATP (Sigma-Aldrich, St. Louis, MO 63178) and [g33P] ATP (specific activity 10 microCi/microliter) purchased at PerkinElmer (Boston, MA, 02118 Cat #BLU 003H250UC) were added at a final total concentration of […]. Reactions were carried out at room temperature for 2 hr and spotted onto P81 ion exchange cellulose chromatography paper (Reaction Biology). Filter paper was washed in 0.75% phosphoric acid to remove unincorporated ATP. The percent remaining kinase activity relative to a vehicle-containing (DMSO) kinase reaction was calculated for each kinase/inhibitor pair. IC50 values were calculated using Dotmatics Knowledge Solutions Studies curve fitting (Dotmatics, Bishops Stortford, UK, CM23).

T1 sequence (P21802 22-821): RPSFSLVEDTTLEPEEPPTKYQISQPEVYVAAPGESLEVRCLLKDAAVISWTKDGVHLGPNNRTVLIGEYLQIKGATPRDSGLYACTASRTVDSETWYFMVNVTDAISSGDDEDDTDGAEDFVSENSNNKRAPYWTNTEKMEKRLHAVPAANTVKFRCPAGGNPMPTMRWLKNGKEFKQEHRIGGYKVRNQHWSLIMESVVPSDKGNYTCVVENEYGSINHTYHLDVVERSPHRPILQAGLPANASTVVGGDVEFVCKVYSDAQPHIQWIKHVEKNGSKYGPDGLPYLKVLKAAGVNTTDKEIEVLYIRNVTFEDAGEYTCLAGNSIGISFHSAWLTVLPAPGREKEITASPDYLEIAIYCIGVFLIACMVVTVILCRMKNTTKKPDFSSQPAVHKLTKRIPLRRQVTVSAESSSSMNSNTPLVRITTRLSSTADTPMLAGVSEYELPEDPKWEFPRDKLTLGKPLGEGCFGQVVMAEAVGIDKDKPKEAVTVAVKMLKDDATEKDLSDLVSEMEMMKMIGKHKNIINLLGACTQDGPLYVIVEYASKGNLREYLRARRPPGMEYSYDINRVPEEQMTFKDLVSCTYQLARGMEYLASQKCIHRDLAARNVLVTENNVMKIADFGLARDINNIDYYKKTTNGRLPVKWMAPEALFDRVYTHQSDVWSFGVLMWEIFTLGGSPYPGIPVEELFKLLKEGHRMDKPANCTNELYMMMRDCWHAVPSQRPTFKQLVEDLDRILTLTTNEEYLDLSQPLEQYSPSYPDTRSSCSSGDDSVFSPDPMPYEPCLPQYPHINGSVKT

IC50, ≤ 100 nM:
C=CC(=O)N1C[C@@H](n2nc(C#Cc3ccc4c(c3)ncn4C3CC3)c3c(N)nccc32)C[C@@H]1COC [Example 24, 1-((2R,4S)-4-(4-amino-3-((1-cyclopropyl-1H-benzo[d]imidazol-5-yl)ethynyl)-1H-pyrazolo[4,3-c]pyridin-1-yl)-2-(methoxymethyl)pyrrolidin-1-yl)prop-2-en-1-one]
C=CC(=O)N1C[C@@H](n2nc(C#Cc3ccc4c(c3)nc(C)n4C3CC3)c3c(N)ncnc32)C[C@@H]1COC [Example 15, 1-((2R,4S)-4-(4-amino-3-((1-cyclopropyl-2-methyl-1H-benzo[d]imidazol-5-yl)ethynyl)-1H-pyrazolo[3,4-d]pyrimidin-1-yl)-2-(methoxymethyl)pyrrolidin-1-yl)prop-2-en-1-one]
C=CC(=O)N1C[C@@H](n2nc(C#Cc3ccc4nc(C)n(C)c4c3)c3c(N)ncnc32)C[C@@H]1COC [Example 4, 1-((2R,4S)-4-(4-amino-3-((1,2-dimethyl-1H-benzo[d]imidazol-6-yl)ethynyl)-1H-pyrazolo[3,4-d]pyrimidin-1-yl)-2-(methoxymethyl)pyrrolidin-1-yl)prop-2-en-1-one]
C=CC(=O)N1C[C@@H](n2nc(C#Cc3ccc4cn[nH]c4c3)c3c(N)ncnc32)C[C@@H]1COC [Example 14, 1-((2R,4S)-4-(3-((1H-indazol-6-yl)ethynyl)-4-amino-1H-pyrazolo[3,4-d]pyrimidin-1-yl)-2-(methoxymethyl)pyrrolidin-1-yl)prop-2-en-1-one]
C=CC(=O)N1C[C@@H](n2nc(C#Cc3c(F)cc4c(ncn4C)c3F)c3c(N)nccc32)C[C@@H]1COC [Example 26, 1-((2R,4S)-4-(4-amino-3-((4,6-difluoro-1-methyl-1H-benzo[d]imidazol-5-yl)ethynyl)-1H-pyrazolo[4,3-c]pyridin-1-yl)-2-(methoxymethyl)pyrrolidin-1-yl)prop-2-en-1-one]
C=CC(=O)N1C[C@@H](n2cc(C#Cc3ccc4c(c3)ncn4C)c3c(N)nccc32)C[C@@H]1COC [Example 27, 1-((2R,4S)-4-(4-amino-3-((1-methyl-1H-benzo[d]imidazol-5-yl)ethynyl)-1H-pyrrolo[3,2-c]pyridin-1-yl)-2-(methoxymethyl)pyrrolidin-1-yl)prop-2-en-1-one]
C=CC(=O)N1C[C@@H](n2nc(C#Cc3ccc4c(c3)ncn4C)c3c(N)nccc32)C[C@@H]1COC [Example 19, 1-((2R,4S)-4-(4-amino-3-((1-methyl-1H-benzo[d]imidazol-5-yl)ethynyl)-1H-pyrazolo[4,3-c]pyridin-1-yl)-2-(methoxymethyl)pyrrolidin-1-yl)prop-2-en-1-one]
C=CC(=O)N1C[C@@H](n2nc(C#Cc3ccc4[nH]ncc4c3)c3c(N)ncnc32)C[C@@H]1COC [Example 2, 1-((2R,4S)-4-(3-((1H-indazol-5-yl)ethynyl)-4-amino-1H-pyrazolo[3,4-d]pyrimidin-1-yl)-2-(methoxymethyl)pyrrolidin-1-yl)prop-2-en-1-one]
C=CC(=O)N1C[C@@H](n2nc(C#Cc3ccc4[nH]c(C)nc4c3)c3c(N)nccc32)C[C@@H]1COC [Example 22, 1-((2R,4S)-4-(4-amino-3-((2-methyl-1H-benzo[d]imidazol-5-yl)ethynyl)-1H-pyrazolo[4,3-c]pyridin-1-yl)-2-(methoxymethyl)pyrrolidin-1-yl)prop-2-en-1-one]

Target: T1, FGFR2
Assay: FGFR2 Kinase Protocol - Condition 2 (Reaction Biology HotSpot radiometric kinase assay, no preincubation)
Type: biochemical
Settings: poly[Glu:Tyr] (4:1) 0.2 mg/ml, ATP 100 microM, 2 hr room temperature
How it was run: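 Radiometric HotSpot format: FGFR2 (wildtype or V564F) with poly[Glu:Tyr] (4:1) at 0.2 mg/ml in HEPES pH 7.5 buffer with 1% DMSO; ATP plus [γ33P]ATP at 100 µM total, added without preincubation. Reactions ran 2 hr at room temperature, then filter-bound. IC50 from 10-dose, 3-fold series versus DMSO control.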

IC50, ≤ 100 nM:
[2H]C([2H])([2H])OC[C@H]1C[C@H](n2nc(C#Cc3c(F)cc4c(ncn4C)c3F)c3c(N)ncnc32)CN1C(=O)C=C [Example 134, 1-[(2R,4S)-4-[4-Amino-3-[2-(4,6-difluoro-1-methyl-1,3-benzodiazol-5-yl)ethynyl]pyrazolo[3,4-d]pyrimidin-1-yl]-2-[(2H3)methoxymethyl]pyrrolidin-1-yl]prop-2-en-1-one]
C=CC(=O)N1C[C@@H](n2nc(C#Cc3c(F)cc4nc(C)[nH]c4c3F)c3c(N)nccc32)C[C@@H]1COC [Example 95, 1-[(2R,4S)-4-[4-Amino-3-[2-(4,6-difluoro-2-methyl-1H-1,3-benzodiazol-5-yl)ethynyl]pyrazolo[4,3-c]pyridin-1-yl]-2-(methoxymethyl)pyrrolidin-1-yl]prop-2-en-1-one]
C=CC(=O)N1C[C@@H](n2nc(C#Cc3cc4ncn(C5CC5)c4cc3F)c3c(N)nccc32)C[C@@H]1COC [Example 109, 1-[(2R,4S)-4-[4-Amino-3-[2-(1-cyclopropyl-6-fluoro-1,3-benzodiazol-5-yl)ethynyl]pyrazolo[4,3-c]pyridin-1-yl]-2-(methoxymethyl)pyrrolidin-1-yl]prop-2-en-1-one]
C=CC(=O)N1C[C@@H](n2cc(C#Cc3c(Cl)cc4c(ncn4C)c3F)c3c(N)ncnc32)C[C@@H]1COC [Example 106, 1-[(2R,4S)-4-[4-Amino-5-[2-(6-chloro-4-fluoro-1-methyl-1,3-benzodiazol-5-yl)ethynyl]pyrrolo[2,3-d]pyrimidin-7-yl]-2-(methoxymethyl)pyrrolidin-1-yl]prop-2-en-1-one]
C=CC(=O)N1CC[C@H](n2nc(C#Cc3cc4ncn(C)c4c(F)c3F)c3c(N)ncnc32)C1 [Example 154, 1-[(3S)-3-{4-Amino-3-[2-(6,7-difluoro-1-methyl-1,3-benzodiazol-5-yl)ethynyl]pyrazolo[3,4-d]pyrimidin-1-yl}pyrrolidin-1-yl]prop-2-en-1-one]
C=CC(=O)N1CC[C@H](n2nc(C#Cc3cc4ncn(CC)c4cc3Cl)c3c(N)ncnc32)C1 [Example 132, 1-[(3S)-3-{4-Amino-3-[2-(6-chloro-1-ethyl-1,3-benzodiazol-5-yl)ethynyl]pyrazolo[3,4-d]pyrimidin-1-yl}pyrrolidin-1-yl]prop-2-en-1-one]
C=CC(=O)N1C[C@@H](n2nc(C#Cc3cc4nc(C)n(C)c4cc3Cl)c3c(N)nccc32)C[C@@H]1COC [Example 97, 1-[(2R,4S)-4-[4-Amino-3-[2-(6-chloro-1,2-dimethyl-1,3-benzodiazol-5-yl)ethynyl]pyrazolo[4,3-c]pyridin-1-yl]-2-(methoxymethyl)pyrrolidin-1-yl]prop-2-en-1-one]
C=CC(=O)N1C[C@@H](n2cc(C#Cc3c(F)cc4c(ncn4C(F)F)c3F)c3c(N)ncnc32)C[C@@H]1COC [Example 69, 1-[(2R,4S)-4-(4-Amino-5-[2-[1-(difluoromethyl)-4,6-difluoro-1,3-benzodiazol-5-yl]ethynyl]pyrrolo[2,3-d]pyrimidin-7-yl)-2-(methoxymethyl)pyrrolidin-1-yl]prop-2-en-1-one]
C=CC(=O)N1C[C@@H](n2nc(C#Cc3c(F)cc4[nH]c(C)nc4c3F)c3c(N)ncnc32)C[C@@H]1COC [Example 94, 1-[(2R,4S)-4-[4-Amino-3-[2-(4,6-difluoro-2-methyl-1H-1,3-benzodiazol-5-yl)ethynyl]pyrazolo[3,4-d]pyrimidin-1-yl]-2-(methoxymethyl)pyrrolidin-1-yl]prop-2-en-1-one]
C=CC(=O)N1C[C@@H](n2nc(C#Cc3cc4ncn(C)c4cc3Cl)c3c(N)ncnc32)C[C@@H]1COC [Example 90, 1-[(2R,4S)-4-[4-Amino-3-[2-(6-chloro-1-methyl-1,3-benzodiazol-5-yl)ethynyl]pyrazolo[3,4-d]pyrimidin-1-yl]-2-(methoxymethyl)pyrrolidin-1-yl]prop-2-en-1-one]
C=CC(=O)N1C[C@@H](n2nc(C#Cc3ccc4c(c3)nc(C)n4C)c3c(N)nccc32)C[C@@H]1CC#N [Example 43, 2-((2R,4S)-1-acryloyl-4-(4-amino-3-((1,2-dimethyl-1H-benzo[d]imidazol-5-yl)ethynyl)-1H-pyrazolo[4,3-c]pyridin-1-yl)pyrrolidin-2-yl)acetonitrile]
C=CC(=O)N1C[C@@H](n2nc(C#Cc3cc4ncn(C5CC5)c4cc3Cl)c3c(N)nccc32)C[C@@H]1COC [Example 138, 1-[(2R,4S)-4-{4-Amino-3-[2-(6-chloro-1-cyclopropyl-1,3-benzodiazol-5-yl)ethynyl]pyrazolo[4,3-c]pyridin-1-yl}-2-(methoxymethyl)pyrrolidin-1-yl]prop-2-en-1-one]

Reference: patent US20230374015A1, “INHIBITORS OF FIBROBLAST GROWTH FACTOR RECEPTOR KINASES” (Kinnate Biopharma Inc., priority 2020, published 2023)
